Marks after values point to notes of the source that are not given here.
What was measured:
resting platelets = experiment: Platelet aggregation induced by peptide in resting washed platelets (activation); format: cell-based, human (healthy volunteers)
Outline: (§1)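 Aggregation was read by optical density at 37°C under 1100 rpm stirring. Samples were 3x10^5/μl washed human platelets, rested 45 min and supplemented with 1.8 mM calcium chloride. Peptide went in at 2 min, followed 6 min later by TRAP at an experiment-dependent concentration, with 7 min further recording.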

TRAP-activated platelets = experiment: Inhibition of TRAP-induced platelet aggregation after pre-incubation with peptide; format: cell-based, human (healthy volunteers)
Outline: as §1

vinculin in HeLa cells = molecular target: T1, vinculin in HeLa cells (Homo sapiens, UniProt P18206); experiment: Co-localization of 5FAM-labeled peptide with vinculin in HeLa cells (microscopy); format: cell-based; conditions: 15 μM, 5-15 minutes
T1 construct: endogenous in cells; host or cells: HeLa
T1 sequence (P18206 1-1066 isoform P18206-2): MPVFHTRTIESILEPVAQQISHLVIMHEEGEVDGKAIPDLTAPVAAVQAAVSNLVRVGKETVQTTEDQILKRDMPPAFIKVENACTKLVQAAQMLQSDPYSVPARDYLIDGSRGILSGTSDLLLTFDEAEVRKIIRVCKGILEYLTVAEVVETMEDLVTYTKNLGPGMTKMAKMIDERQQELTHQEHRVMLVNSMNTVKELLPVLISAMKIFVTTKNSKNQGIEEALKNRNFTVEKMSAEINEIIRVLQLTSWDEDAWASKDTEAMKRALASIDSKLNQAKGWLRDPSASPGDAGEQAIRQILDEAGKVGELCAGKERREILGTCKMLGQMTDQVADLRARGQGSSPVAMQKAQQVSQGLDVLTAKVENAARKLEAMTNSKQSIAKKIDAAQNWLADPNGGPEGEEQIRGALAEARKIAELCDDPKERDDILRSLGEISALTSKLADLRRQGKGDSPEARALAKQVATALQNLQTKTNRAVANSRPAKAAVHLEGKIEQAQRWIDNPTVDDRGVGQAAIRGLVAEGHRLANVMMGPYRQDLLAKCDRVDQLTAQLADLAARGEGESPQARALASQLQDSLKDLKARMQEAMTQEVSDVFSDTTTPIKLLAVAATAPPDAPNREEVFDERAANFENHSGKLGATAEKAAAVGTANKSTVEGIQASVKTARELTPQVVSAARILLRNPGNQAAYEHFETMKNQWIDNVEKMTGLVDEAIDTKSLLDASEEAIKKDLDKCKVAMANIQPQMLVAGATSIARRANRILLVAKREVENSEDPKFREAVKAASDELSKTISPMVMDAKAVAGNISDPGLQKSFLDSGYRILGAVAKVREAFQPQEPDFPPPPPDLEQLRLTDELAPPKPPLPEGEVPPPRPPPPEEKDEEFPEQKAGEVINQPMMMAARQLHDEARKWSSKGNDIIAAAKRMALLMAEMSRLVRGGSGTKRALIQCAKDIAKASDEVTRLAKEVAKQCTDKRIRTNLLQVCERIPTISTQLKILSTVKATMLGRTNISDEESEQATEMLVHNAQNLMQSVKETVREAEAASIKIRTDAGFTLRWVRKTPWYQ
Method: (§2) HeLa cells were seeded on a 24-well plate with inserted coverslips at a density of 30000 cells/well. After 24h the cells were treated with 15 μM peptide for the desired amount of time (5, 10, 15 minutes). Cells were then fixed in 3% paraformaldehyde (PFA, Sigma) for 20 minutes and permeabilized with 0.1% Triton X-100 (Sigma) for 5 minutes at room temperature. Cells were then washed 3 times with PBS and stained with antibodies. Staining with primary antibody (paxillin/vinculin (Abcam)) was performed for 30 minutes, followed by three PBS washes and secondary staining using goat anti-mouse Alexa 568 antibody (Life Technologies) for 30 minutes. Then the nuclei were stained with 0.2 μg/ml Hoechst33342, the coverslips were thoroughly washed with PBS and mounted on glass slides with Mowiol mounting medium. The slides were then imaged on a FluoView FV1000 laser scanning microscope (Olympus) with 60x UPLSAPO 1.35NA (Olympus) oil immersion objective.

paxillin in HeLa cells = molecular target: T2, paxillin in HeLa cells (Homo sapiens, UniProt P49023); experiment: Co-localization of 5FAM-labeled peptide with paxillin in HeLa cells (microscopy); format: cell-based; conditions: 15 μM, 5-15 minutes
T2 construct: endogenous in cells; host or cells: HeLa
Method: as §2

T2 sequence (P49023 whole entry): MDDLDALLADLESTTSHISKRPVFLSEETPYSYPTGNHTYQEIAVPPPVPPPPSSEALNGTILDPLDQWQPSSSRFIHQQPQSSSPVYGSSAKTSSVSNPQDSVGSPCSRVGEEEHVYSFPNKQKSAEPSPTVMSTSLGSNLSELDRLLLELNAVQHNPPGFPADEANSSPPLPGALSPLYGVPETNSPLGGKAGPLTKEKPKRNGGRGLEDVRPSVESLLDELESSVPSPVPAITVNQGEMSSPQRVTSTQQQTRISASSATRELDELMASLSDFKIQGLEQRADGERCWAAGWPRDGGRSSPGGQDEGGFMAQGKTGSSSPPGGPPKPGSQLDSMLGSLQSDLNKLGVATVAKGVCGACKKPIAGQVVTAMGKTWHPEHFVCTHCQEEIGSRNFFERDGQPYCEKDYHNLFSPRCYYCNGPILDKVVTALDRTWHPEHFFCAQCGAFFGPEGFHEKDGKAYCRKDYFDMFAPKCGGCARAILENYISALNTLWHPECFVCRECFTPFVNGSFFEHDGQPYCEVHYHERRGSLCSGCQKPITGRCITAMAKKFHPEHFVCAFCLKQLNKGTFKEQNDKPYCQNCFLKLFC

tat-WEQLLTTIARTINEVENQI-(NH2) [tat-ACTN1_VBS]
Platelet activation, donor 14 06 13 (resting platelets; Fig S10 sheet, replicate 14_06_13, peptide 50 µM, unit assumed): 68%
Platelet activation, donor 18 06 13 (resting platelets; Fig S10 sheet, replicate 18_06_13, peptide 50 µM, unit assumed): 73%
Platelet activation, donor 22 08 13 DONOR1 (resting platelets; Fig S10 sheet, replicate 22_08_13_DONOR1, peptide 50 µM, unit assumed): 59%
Platelet activation, donor 22 08 13 DONOR2 (resting platelets; Fig S10 sheet, replicate 22_08_13_DONOR2, peptide 50 µM, unit assumed): 41%
Activation (resting platelets; platelet aggregation in resting platelets after 6 minutes incubation with peptide, pal-peptides 20 μM, tat-peptides 50 μM, optical density, aggregometer, mean, n>=3): 66 ^*
Aggregation before TRAP activation, donor e (resting platelets; replicate donor e, pal 20 μM, tat 50 μM): 73
Aggregation before TRAP activation, donor k (resting platelets; replicate donor k, pal 20 μM, tat 50 μM): 59
Aggregation before TRAP activation, donor l (resting platelets; replicate donor l, pal 20 μM, tat 50 μM): 68
Aggregation after TRAP, peptide alone 1x (A 1x / B 1x) (TRAP-activated platelets; TRAP 2 μM after 6 minutes pre-incubation, 4 μM pal-peptides, 10 μM tat-peptides, mean n = 3): 68.33
Aggregation after TRAP, peptide alone 2x (A 2x / B 2x) (TRAP-activated platelets; TRAP 2 μM after 6 minutes pre-incubation, double concentration of 4 μM (pal) / 10 μM (tat), mean n = 3): 68.67
Platelet aggregation after TRAP activation (TRAP-activated platelets; platelet aggregation induced by 4 μM TRAP in platelets pre-incubated with peptide (low value = inhibition), pal-peptides 20 μM, tat-peptides 50 μM, mean, n>=3): 61 ^*
Aggregation after TRAP activation, donor e (TRAP-activated platelets; replicate donor e, TRAP 4 μM, pal 20 μM, tat 50 μM): 66
Aggregation after TRAP activation, donor k (TRAP-activated platelets; replicate donor k, TRAP 4 μM, pal 20 μM, tat 50 μM): 51
Aggregation after TRAP activation, donor l (TRAP-activated platelets; replicate donor l, TRAP 4 μM, pal 20 μM, tat 50 μM): 68
Co-localization with vinculin (vinculin in HeLa cells): co-localized with vinculin
Co-localization with paxillin (paxillin in HeLa cells): did not co-localize

Reference: publication PMC6349357, “Computational and experimental analysis of bioactive peptide linear motifs in the integrin adhesome” (PLoS ONE, 2019)
